Measurements from ChEMBL document CHEMBL5325403, “Benzenesulfonyl thiazoloimines as unique multitargeting antibacterial agents towards Enterococcus faecalis” (Eur J Med Chem, 2023).
Values after ≈ are worked out from the molar mass of the structure shown.

Assays:
Assay type in all cases: functional
[1] = tested on: Escherichia coli; experiment: Antibacterial activity against Escherichia coli ATCC 25922 assessed as inhibition of bacterial growth by continuous dilution method
[2] = tested on: Staphylococcus aureus; experiment: Antibacterial activity against Staphylococcus aureus ATCC 25923 assessed as inhibition of bacterial growth by continuous dilution method
[3] = tested on: Staphylococcus aureus; experiment: Antibacterial activity against methicillin-resistant Staphylococcus aureus N315 assessed as inhibition of bacterial growth by continuous dilution method
[4] = tested on: Staphylococcus aureus; experiment: Antibacterial activity against Staphylococcus aureus assessed as inhibition of bacterial growth by continuous dilution method
[5] = tested on: Staphylococcus aureus; experiment: Antibacterial activity against Staphylococcus aureus ATCC 29213 assessed as inhibition of bacterial growth by continuous dilution method
[6] = tested on: Enterococcus faecalis; experiment: Antibacterial activity against Enterococcus faecalis assessed as inhibition of bacterial growth by continuous dilution method
[7] = tested on: Pseudomonas aeruginosa; experiment: Antibacterial activity against Pseudomonas aeruginosa assessed as inhibition of bacterial growth by continuous dilution method
[8] = tested on: Pseudomonas aeruginosa; experiment: Antibacterial activity against Pseudomonas aeruginosa ATCC 27853 assessed as inhibition of bacterial growth by continuous dilution method
[9] = tested on: Klebsiella pneumoniae; experiment: Antibacterial activity against Klebsiella pneumoniae assessed as inhibition of bacterial growth by continuous dilution method
[10] = tested on: Acinetobacter baumannii; experiment: Antibacterial activity against Acinetobacter baumannii assessed as inhibition of bacterial growth by continuous dilution method
[11] = tested on: Escherichia coli; experiment: Antibacterial activity against Escherichia coli assessed as inhibition of bacterial growth by continuous dilution method

SMILES: CC(=O)Nc1ccc(S(=O)(=O)/C(=C\c2ccc(C#N)cc2)C(=O)c2nccs2)cc1
- MIC [1]: 16 µg/mL (≈ 36.6 µM)
- MIC [2]: 32 µg/mL (≈ 73.1 µM)
- MIC [3]: 8 µg/mL (≈ 18.3 µM)
- MIC [4]: 8 µg/mL (≈ 18.3 µM)
- MIC [5]: 8 µg/mL (≈ 18.3 µM)
- MIC [6]: 8 µg/mL (≈ 18.3 µM)
- MIC [7]: 128 µg/mL (≈ 293 µM)
- MIC [8]: 64 µg/mL (≈ 146 µM)
- MIC [9]: 128 µg/mL (≈ 293 µM)
- MIC [10]: 128 µg/mL (≈ 293 µM)
- MIC [11]: 32 µg/mL (≈ 73.1 µM)

SMILES: Nc1ccc(S(=O)(=O)C/C(=N/O)c2nccs2)cc1
- MIC [1]: 16 µg/mL (≈ 53.8 µM)
- MIC [2]: 64 µg/mL (≈ 215 µM)
- MIC [3]: 128 µg/mL (≈ 430 µM)
- MIC [4]: 128 µg/mL (≈ 430 µM)
- MIC [5]: 64 µg/mL (≈ 215 µM)
- MIC [6]: 128 µg/mL (≈ 430 µM)
- MIC [7]: 128 µg/mL (≈ 430 µM)
- MIC [8]: 64 µg/mL (≈ 215 µM)
- MIC [9]: 64 µg/mL (≈ 215 µM)
- MIC [10]: 256 µg/mL (≈ 861 µM)
- MIC [11]: 32 µg/mL (≈ 108 µM)

SMILES: CC(=O)Nc1ccc(S(=O)(=O)/C(=C\c2ccc(C(F)(F)F)cc2)C(=O)c2nccs2)cc1
- MIC [1]: 256 µg/mL (≈ 533 µM)
- MIC [2]: 128 µg/mL (≈ 266 µM)
- MIC [3]: 256 µg/mL (≈ 533 µM)
- MIC [4]: 256 µg/mL (≈ 533 µM)
- MIC [5]: 128 µg/mL (≈ 266 µM)
- MIC [6]: 128 µg/mL (≈ 266 µM)
- MIC [7]: 64 µg/mL (≈ 133 µM)
- MIC [8]: 64 µg/mL (≈ 133 µM)
- MIC [9]: 256 µg/mL (≈ 533 µM)
- MIC [10]: 128 µg/mL (≈ 266 µM)
- MIC [11]: 256 µg/mL (≈ 533 µM)

SMILES: CCCCO/N=C(/CS(=O)(=O)c1ccc(N)cc1)c1nccs1
- MIC [1]: 32 µg/mL (≈ 90.5 µM)
- MIC [2]: 32 µg/mL (≈ 90.5 µM)
- MIC [3]: 64 µg/mL (≈ 181 µM)
- MIC [4]: 32 µg/mL (≈ 90.5 µM)
- MIC [5]: 64 µg/mL (≈ 181 µM)
- MIC [6]: 16 µg/mL (≈ 45.3 µM)
- MIC [7]: 32 µg/mL (≈ 90.5 µM)
- MIC [8]: 32 µg/mL (≈ 90.5 µM)
- MIC [9]: 16 µg/mL (≈ 45.3 µM)
- MIC [10]: 64 µg/mL (≈ 181 µM)
- MIC [11]: 32 µg/mL (≈ 90.5 µM)

SMILES: CCCCCCO/N=C(/CS(=O)(=O)c1ccc(NC(C)=O)cc1)c1nccs1
- MIC [1]: 8 µg/mL (≈ 18.9 µM)
- MIC [2]: 64 µg/mL (≈ 151 µM)
- MIC [3]: 32 µg/mL (≈ 75.6 µM)
- MIC [4]: 64 µg/mL (≈ 151 µM)
- MIC [5]: 128 µg/mL (≈ 302 µM)
- MIC [6]: 32 µg/mL (≈ 75.6 µM)
- MIC [7]: 32 µg/mL (≈ 75.6 µM)
- MIC [8]: 32 µg/mL (≈ 75.6 µM)
- MIC [9]: 64 µg/mL (≈ 151 µM)
- MIC [10]: 128 µg/mL (≈ 302 µM)
- MIC [11]: 32 µg/mL (≈ 75.6 µM)

SMILES: CC(=O)Nc1ccc(S(=O)(=O)C/C(=N/Nc2ccc([N+](=O)[O-])cc2)c2nccs2)cc1
- MIC [1]: 32 µg/mL (≈ 69.6 µM)
- MIC [2]: 256 µg/mL (≈ 557 µM)
- MIC [3]: 256 µg/mL (≈ 557 µM)
- MIC [4]: 32 µg/mL (≈ 69.6 µM)
- MIC [5]: 256 µg/mL (≈ 557 µM)
- MIC [6]: 256 µg/mL (≈ 557 µM)
- MIC [7]: 32 µg/mL (≈ 69.6 µM)
- MIC [8]: 64 µg/mL (≈ 139 µM)
- MIC [9]: 256 µg/mL (≈ 557 µM)
- MIC [10]: 256 µg/mL (≈ 557 µM)
- MIC [11]: 64 µg/mL (≈ 139 µM)

SMILES: CC(=O)Nc1ccc(S(=O)(=O)C/C(=N/NC(=O)c2ccncc2)c2nccs2)cc1
- MIC [1]: 128 µg/mL (≈ 289 µM)
- MIC [2]: 8 µg/mL (≈ 18 µM)
- MIC [3]: 32 µg/mL (≈ 72.2 µM)
- MIC [4]: 16 µg/mL (≈ 36.1 µM)
- MIC [5]: 4 µg/mL (≈ 9.02 µM)
- MIC [6]: 4 µg/mL (≈ 9.02 µM)
- MIC [7]: 8 µg/mL (≈ 18 µM)
- MIC [8]: 4 µg/mL (≈ 9.02 µM)
- MIC [9]: 32 µg/mL (≈ 72.2 µM)
- MIC [10]: 32 µg/mL (≈ 72.2 µM)
- MIC [11]: 128 µg/mL (≈ 289 µM)

SMILES: CC(=O)Nc1ccc(S(=O)(=O)C/C(=N/OCC#N)c2nccs2)cc1
- MIC [1]: 32 µg/mL (≈ 84.6 µM)
- MIC [2]: 128 µg/mL (≈ 338 µM)
- MIC [3]: 64 µg/mL (≈ 169 µM)
- MIC [4]: 64 µg/mL (≈ 169 µM)
- MIC [5]: 64 µg/mL (≈ 169 µM)
- MIC [6]: 64 µg/mL (≈ 169 µM)
- MIC [7]: 128 µg/mL (≈ 338 µM)
- MIC [8]: 64 µg/mL (≈ 169 µM)
- MIC [9]: 64 µg/mL (≈ 169 µM)
- MIC [10]: 256 µg/mL (≈ 676 µM)
- MIC [11]: 32 µg/mL (≈ 84.6 µM)
